# How the values were obtained:
# plasma protein binding = assay type: in vitro ADME
# From the text: As in vivo investigations are generally time consuming and expensive, it is advantageous to eliminate those compounds that are not suitable for animal experiments. One of the necessary steps is to screen the initial hits using assays testing their possible behaviors in vivo. To evaluate the drug-like properties of TBPT, a panel of in vitro assays was preformed (Table 1). The parallel artificial membrane permeability assay (PAMPA) was used to evaluate the cell permeability of the compounds. Compounds with a Pe >[…] are classified as highly permeable. […] The Caco-2 assay was used to predict the oral absorption values of the compounds in vivo. Compounds with a Caco-2 efflux ratio >2 may be subject to active efflux and should not be developed further. […] The half-life (T1/2) in human liver microsomes is used to predict the metabolism properties of compounds in vivo. […] A very long T1/2 (>24 h) increases the risk of cumulative toxicity and is not desirable. […] T1/2 in plasma indicates the stability of the drug in human blood; the high T1/2 values of these compounds indicated better stability in vivo. Plasma protein binding influences the distribution of drugs into body tissues, and compounds with high plasma protein binding (>99%) are limited in terms of the amount of free compound that are available to act on the targeted tissue. […]
# MET(M1250T) = biological target: T1, MET(M1250T) (Homo sapiens, UniProt P08581, M1250T); experiment: KINOMEscan; assay type: binding; details: read-out: % Ctrl
# T1 construct: purchased DiscoveRx KINOMEscan
# [1] = biological target: T2, ABL1(F317I)-nonphosphorylated (Homo sapiens, UniProt P00519, F317I); experiment: KINOMEscan; assay type: binding; details: read-out: % Ctrl
# T2 construct: purchased DiscoveRx KINOMEscan
# [2] = biological target: T3, ABL1(E255K)-phosphorylated (Homo sapiens, UniProt P00519, E255K); experiment: KINOMEscan; assay type: binding; details: read-out: % Ctrl
# T3 construct: purchased DiscoveRx KINOMEscan
# H460 = experiment: Apoptosis flow cytometry (PI/Annexin V-FITC); assay type: cell-based, human; details: NSCLC cells (H460), 2 μM, 48 h
# RET(V804L) = biological target: T4, RET(V804L) (Homo sapiens, UniProt P07949, V804L); experiment: KINOMEscan; assay type: binding; details: read-out: % Ctrl
# T4 construct: purchased DiscoveRx KINOMEscan
# MET(Y1235D) = biological target: T5, MET(Y1235D) (Homo sapiens, UniProt P08581, Y1235D); experiment: KINOMEscan; assay type: binding; details: read-out: % Ctrl
# T5 construct: purchased DiscoveRx KINOMEscan
# Protocol: (§1) The binding assay for 442 non-mutant kinases was performed using KINOMEscan (DiscoveRx Corporation, Fremont, CA, USA) as reported previously.[58], [59] TBPT was screened at concentrations of 5 and 10 μM to identify the affected kinases. KINOMEscan is based on a competition reaction that quantitatively measures the ability of a test compound to compete with an active site-directed ligand for binding to the kinase active site. […] After the assay plates were incubated with shaking for 1 h, the liganded beads were washed with washing buffer (1 × PBS and 0.05% Tween 20). Then, the beads were re-suspended in elution buffer (1 × PBS, 0.05% Tween 20, and 0.5 μM ligand) and incubated with shaking for 30 min. The kinase concentration in the eluates was measured via qPCR. The results are represented as ‘%Ctrl', which was calculated using the following formula: (test compound signal–positive control signal)/(DMSO signal–positive control signal) × 100%. A lower % Ctrl indicates stronger binding to the kinase active site.
# HUNK = biological target: T6, HUNK (Homo sapiens, UniProt P57058); experiment: KINOMEscan; assay type: binding; details: read-out: % Ctrl
# T6 construct: purchased DiscoveRx KINOMEscan
# Protocol: as §1
# AMPK-alpha2 = biological target: T7, AMPK-alpha2 (Homo sapiens, UniProt P54646); experiment: KINOMEscan; assay type: binding; details: read-out: % Ctrl
# T7 construct: purchased DiscoveRx KINOMEscan
# Protocol: as §1
# MARK1 = biological target: T8, MARK1 (Homo sapiens, UniProt Q9P0L2); experiment: KINOMEscan; assay type: binding; details: read-out: % Ctrl
# T8 construct: purchased DiscoveRx KINOMEscan
# Protocol: as §1
# AMPK-alpha1 = biological target: T9, AMPK-alpha1 (Homo sapiens, UniProt Q13131); experiment: KINOMEscan; assay type: binding; details: read-out: % Ctrl
# T9 construct: purchased DiscoveRx KINOMEscan
# Protocol: as §1
# PIK3CA(M1043I) = biological target: T10, PIK3CA(M1043I) (Homo sapiens, UniProt P42336, M1043I); experiment: KINOMEscan; assay type: binding; details: read-out: % Ctrl
# T10 construct: purchased DiscoveRx KINOMEscan
# Protocol: as §1
# caspases 8, 9 and 3/7 = experiment: Caspases activity assay in H460 cells; assay type: cell-based, human; details: H460, 2 μM, 6, 12 and 24 h
# Protocol: The activities of caspases 8, 9, and 3/7 in H460TaxR and H460 cells were examined via a fluorescence-based assay using Caspase-Glo 8, Caspase-Glo 9 Assay kits and Apo-ONE Homogeneous Caspase-3/7 Assay Kit (Promega, Madison, WI, USA). Cells (1 × 10^6 cells in 10 ml medium) were seeded in 10-cm dishes. After 24 h, the cells were treated with TBPT (2 μM) or DMSO for 6, 12 and 24 h. Then, the cells were washed in PBS and collected. Cell lysates were prepared conventionally in RIPA lysis buffer. Protein concentrations were determined using the BCA protein assay. Equal amounts (10 μg) of total protein of samples were added to 96-well culture plates containing 100 μl caspases 8, 9 and 3/7 activity working solution. After the samples were incubated for 1 h at RT, the fluorescence of each well was determined at 499 nm with an emission wavelength of 521 nm using a multimode plate reader (Victor X2, Perkin Elmer, Boston, MA, USA). The fluorescence intensities are proportional to the activities of caspases 8, 9 and 3/7.
# KIT(V559D,V654A) = biological target: T11, KIT(V559D,V654A) (Homo sapiens, UniProt P10721, V559D/V654A); experiment: KINOMEscan; assay type: binding; details: read-out: % Ctrl
# T11 construct: purchased DiscoveRx KINOMEscan
# P-gp = biological target: T12, P-gp (Homo sapiens, UniProt P08183); experiment: P-gp ATPase activity assay; assay type: biochemical; details: compared with DMSO; TBPT 2 μM, 1 h; human cell membrane P-gp fractions
# T12 construct: purchased Promega Biotech, Madison, WI, USA
# Protocol: The P-gp ATPase activity was determined in human cell membrane P-gp fractions using a luminescence-based assay.
# The P-gp ATPase activity assay was conducted using the P-gp Glo Assay System following the manufacturer's protocol (Promega Biotech, Madison, WI, USA). […] Then, the luminescence was measured using a POLARstar Galaxy luminometer (BMG Labtech, Offenburg, Germany). The change in luminescence was calculated by comparing the Na3VO4-treated samples with the other compound-treated samples. The change in luminescence change is proportional to the ATP consumption in the samples, which correlated positively with the P-gp ATPase activity.
# [3] = toxicity in xenografted mice; details: TBPT 30 or 60 mg/kg x5, PTX 10 mg/kg x4, i.v.
# Protocol: Five injections of vehicle and TBPT (30 or 60 mg/kg) were administered intravenously at days 1, 3, 5, 7 and 9 (arrows). Four injections of PTX (10 mg/kg) were administered intravenously at days 1, 3, 5 and 7. (a) The tumor volume was measured every other day. When the tumor volume in the solvent-treated group exceeded 1500 mm^3, the experiment was terminated. (b) Blood biochemical and hematological analyses. (c) The body weights of the mice were monitored every other day during the experiments. *P<0.05, Student's t-test with day 0, N=5
# Figure 3 Histopathological examination of the major organs from TBPT or PTX-treated mouse tumor at the end of the experiments. The cross-sections of organs were stained with hematoxylin–eosin. […] The scale bars represent 50 μm and are uniform in each column
# H460 and H460TaxR cells (5 × 10^6 cells in 100 μl PBS) were injected subcutaneously into the dorsal flank of each mouse. When the tumors reached volumes of 100 mm^3, the mice were divided randomly into four groups. The mice were treated every other day five times with intravenous injections of (1) vehicle (the solvent of TBPT: 60% PBS, 8% Cremophor EL, 8% EtOH, 12% poly propylene glycol and 12% PEG-400), (2) TBPT (30 mg/kg) or (3) TBPT (60 mg/kg). Another group was treated with PTX (10 mg/kg) every other day four times as the positive control. The tumor dimensions and body weights were measured every other day. The tumor volume was calculated according to a standard formula: volume=width^2 × length/2. The experiment was terminated and the mice were killed when the tumor volumes in the solvent-treated group exceeded 1500 mm^3. The mouse organs and blood were collected and used for hematoxylin–eosin staining and serum chemistry assay. TGI rates were assessed using the following formula: TGI=1− (Tt−T0)/(Ct−C0) × 100%. Tt and T0 indicate the tumor volumes of the treated group at days t and 0. Ct and C0 indicate the tumor volumes of the control group at days t and 0, respectively.
# KIT(L576P) = biological target: T13, KIT(L576P) (Homo sapiens, UniProt P10721, L576P); experiment: KINOMEscan; assay type: binding; details: read-out: % Ctrl
# T13 construct: purchased DiscoveRx KINOMEscan
# T13 sequence (P10721 26-976 L576P): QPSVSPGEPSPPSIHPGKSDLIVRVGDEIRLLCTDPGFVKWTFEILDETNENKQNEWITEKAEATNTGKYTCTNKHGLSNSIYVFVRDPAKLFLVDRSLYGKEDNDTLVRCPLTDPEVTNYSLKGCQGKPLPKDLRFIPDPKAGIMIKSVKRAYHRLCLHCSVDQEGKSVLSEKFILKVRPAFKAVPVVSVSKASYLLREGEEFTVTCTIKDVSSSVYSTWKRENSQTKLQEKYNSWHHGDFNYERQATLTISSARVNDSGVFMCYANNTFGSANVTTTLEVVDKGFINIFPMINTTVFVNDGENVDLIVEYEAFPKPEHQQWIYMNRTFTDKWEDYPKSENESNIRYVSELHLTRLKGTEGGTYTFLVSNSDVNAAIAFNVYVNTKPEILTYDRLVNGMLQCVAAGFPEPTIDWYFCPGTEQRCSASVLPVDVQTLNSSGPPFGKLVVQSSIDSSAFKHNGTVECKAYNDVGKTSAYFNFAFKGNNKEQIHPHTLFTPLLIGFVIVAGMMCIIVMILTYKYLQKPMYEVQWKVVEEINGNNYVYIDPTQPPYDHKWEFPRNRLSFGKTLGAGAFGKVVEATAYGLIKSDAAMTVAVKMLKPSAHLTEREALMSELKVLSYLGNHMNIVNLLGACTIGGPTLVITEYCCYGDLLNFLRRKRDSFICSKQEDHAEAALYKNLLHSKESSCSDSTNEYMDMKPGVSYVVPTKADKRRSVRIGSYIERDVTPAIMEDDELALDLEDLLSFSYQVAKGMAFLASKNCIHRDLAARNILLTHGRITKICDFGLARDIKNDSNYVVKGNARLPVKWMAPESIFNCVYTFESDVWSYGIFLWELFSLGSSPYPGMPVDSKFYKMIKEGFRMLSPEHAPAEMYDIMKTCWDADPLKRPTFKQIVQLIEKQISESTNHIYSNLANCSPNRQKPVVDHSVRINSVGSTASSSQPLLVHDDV
# T8 sequence (Q9P0L2 whole entry): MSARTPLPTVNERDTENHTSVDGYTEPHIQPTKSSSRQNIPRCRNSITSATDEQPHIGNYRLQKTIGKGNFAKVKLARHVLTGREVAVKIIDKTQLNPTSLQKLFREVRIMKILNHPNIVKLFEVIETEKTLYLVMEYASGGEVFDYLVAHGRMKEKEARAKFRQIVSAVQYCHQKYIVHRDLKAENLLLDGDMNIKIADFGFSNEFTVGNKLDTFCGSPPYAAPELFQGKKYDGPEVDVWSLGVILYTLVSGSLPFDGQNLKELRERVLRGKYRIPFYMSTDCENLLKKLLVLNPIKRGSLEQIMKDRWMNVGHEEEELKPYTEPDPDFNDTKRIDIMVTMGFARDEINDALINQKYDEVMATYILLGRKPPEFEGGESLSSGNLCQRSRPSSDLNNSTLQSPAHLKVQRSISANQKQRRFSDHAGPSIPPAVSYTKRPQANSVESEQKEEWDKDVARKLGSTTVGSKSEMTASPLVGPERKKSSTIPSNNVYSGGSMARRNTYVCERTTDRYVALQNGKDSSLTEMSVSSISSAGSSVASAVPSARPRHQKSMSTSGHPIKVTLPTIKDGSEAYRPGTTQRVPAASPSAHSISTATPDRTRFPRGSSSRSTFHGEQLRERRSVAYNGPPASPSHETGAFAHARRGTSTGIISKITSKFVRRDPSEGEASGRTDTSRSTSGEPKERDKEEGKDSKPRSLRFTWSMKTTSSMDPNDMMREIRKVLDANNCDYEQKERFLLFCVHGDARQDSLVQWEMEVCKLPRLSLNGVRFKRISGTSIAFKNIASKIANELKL
# T5 sequence (P08581 25-1390 Y1235D): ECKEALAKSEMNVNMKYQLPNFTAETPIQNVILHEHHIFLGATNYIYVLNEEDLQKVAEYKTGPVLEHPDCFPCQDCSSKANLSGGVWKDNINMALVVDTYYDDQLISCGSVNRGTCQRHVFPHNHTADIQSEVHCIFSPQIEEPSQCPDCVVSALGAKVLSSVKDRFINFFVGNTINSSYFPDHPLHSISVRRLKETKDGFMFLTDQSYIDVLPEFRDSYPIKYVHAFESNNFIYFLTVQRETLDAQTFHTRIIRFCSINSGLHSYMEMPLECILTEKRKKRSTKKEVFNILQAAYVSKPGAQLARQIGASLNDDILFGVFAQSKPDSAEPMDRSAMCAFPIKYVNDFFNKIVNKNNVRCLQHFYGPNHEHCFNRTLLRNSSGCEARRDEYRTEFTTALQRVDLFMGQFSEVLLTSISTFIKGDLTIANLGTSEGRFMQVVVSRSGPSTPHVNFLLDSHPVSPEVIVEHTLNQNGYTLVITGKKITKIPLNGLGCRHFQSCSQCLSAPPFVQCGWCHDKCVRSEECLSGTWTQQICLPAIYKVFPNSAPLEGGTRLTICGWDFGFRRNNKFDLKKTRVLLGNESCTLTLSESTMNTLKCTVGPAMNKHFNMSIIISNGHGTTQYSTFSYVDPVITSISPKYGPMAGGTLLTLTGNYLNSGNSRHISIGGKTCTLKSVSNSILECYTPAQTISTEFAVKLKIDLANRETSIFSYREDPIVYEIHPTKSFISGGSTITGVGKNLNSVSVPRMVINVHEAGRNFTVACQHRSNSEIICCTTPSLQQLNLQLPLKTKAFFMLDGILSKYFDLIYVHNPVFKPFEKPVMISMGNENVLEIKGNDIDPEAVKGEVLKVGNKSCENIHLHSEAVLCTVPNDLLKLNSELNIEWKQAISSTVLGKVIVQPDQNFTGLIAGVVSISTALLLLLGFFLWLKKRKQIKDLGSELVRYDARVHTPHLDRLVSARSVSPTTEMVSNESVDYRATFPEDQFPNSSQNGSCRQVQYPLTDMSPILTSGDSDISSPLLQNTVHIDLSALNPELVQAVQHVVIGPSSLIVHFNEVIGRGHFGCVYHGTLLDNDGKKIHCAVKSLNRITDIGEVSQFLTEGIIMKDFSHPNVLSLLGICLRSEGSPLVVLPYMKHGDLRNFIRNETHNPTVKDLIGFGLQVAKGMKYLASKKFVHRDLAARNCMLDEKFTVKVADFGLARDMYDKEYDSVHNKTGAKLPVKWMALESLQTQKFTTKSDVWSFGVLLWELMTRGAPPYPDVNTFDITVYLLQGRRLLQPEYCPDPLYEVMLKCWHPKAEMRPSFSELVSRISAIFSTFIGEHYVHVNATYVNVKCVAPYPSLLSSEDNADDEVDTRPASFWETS
# T9 sequence (Q13131 whole entry): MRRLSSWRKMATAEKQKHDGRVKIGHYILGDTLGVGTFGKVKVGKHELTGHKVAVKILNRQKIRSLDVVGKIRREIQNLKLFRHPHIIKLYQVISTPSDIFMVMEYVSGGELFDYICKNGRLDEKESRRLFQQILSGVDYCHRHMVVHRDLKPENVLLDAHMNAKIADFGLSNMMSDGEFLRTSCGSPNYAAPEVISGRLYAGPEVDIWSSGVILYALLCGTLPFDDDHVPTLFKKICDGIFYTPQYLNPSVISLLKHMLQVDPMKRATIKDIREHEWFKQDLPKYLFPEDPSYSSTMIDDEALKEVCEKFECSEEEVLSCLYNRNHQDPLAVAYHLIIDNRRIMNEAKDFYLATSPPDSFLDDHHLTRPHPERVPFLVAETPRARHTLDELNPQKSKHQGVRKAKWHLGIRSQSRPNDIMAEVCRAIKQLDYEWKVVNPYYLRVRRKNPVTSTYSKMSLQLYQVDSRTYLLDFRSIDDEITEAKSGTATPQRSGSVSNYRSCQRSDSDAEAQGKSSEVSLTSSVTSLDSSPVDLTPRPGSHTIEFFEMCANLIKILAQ
# T11 sequence (P10721 26-976 V559D/V654A): as the sequence (P10721 26-976 L576P) above, with V534D, P551L, V629A counted along it
# T4 sequence (P07949 29-1114 V804L): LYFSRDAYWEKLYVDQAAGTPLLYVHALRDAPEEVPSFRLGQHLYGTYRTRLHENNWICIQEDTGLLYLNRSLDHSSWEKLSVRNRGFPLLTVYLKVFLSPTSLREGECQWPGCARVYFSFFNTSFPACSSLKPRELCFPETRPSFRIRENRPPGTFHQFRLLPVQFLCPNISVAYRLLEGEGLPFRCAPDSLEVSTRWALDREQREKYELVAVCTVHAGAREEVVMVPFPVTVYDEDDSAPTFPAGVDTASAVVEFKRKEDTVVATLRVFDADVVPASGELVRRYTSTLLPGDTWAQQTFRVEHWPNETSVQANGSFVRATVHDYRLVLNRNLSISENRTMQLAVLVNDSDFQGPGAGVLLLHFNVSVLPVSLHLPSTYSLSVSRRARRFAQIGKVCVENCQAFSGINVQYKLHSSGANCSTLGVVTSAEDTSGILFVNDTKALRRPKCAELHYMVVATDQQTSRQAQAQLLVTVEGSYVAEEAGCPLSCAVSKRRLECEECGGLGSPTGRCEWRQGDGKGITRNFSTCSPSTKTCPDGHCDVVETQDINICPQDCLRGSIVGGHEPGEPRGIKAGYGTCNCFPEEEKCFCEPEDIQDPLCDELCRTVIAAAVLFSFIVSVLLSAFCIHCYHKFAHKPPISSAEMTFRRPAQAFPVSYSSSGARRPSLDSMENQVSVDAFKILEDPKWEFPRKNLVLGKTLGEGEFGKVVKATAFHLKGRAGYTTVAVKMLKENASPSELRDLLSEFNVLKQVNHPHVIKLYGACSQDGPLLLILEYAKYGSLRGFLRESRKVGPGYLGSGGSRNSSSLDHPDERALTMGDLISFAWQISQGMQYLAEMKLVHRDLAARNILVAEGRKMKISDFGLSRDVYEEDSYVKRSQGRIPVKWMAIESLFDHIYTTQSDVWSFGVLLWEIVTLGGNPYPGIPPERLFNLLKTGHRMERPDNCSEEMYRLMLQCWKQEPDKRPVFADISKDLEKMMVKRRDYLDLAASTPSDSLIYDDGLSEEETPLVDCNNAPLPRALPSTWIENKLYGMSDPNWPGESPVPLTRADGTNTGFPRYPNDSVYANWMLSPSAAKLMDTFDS
structure (smiles),measurement,setting,value
"Cc1ccc(C2=Nc3cccnc3S(=O)(=O)c3ccccc32)cc1 [TBPT, 6-(p-tolyl)benzo[f] pyrido[2,3-b][1,4] thiazepine 11,11-dioxide]",fraction unbound,plasma protein binding,0.0164
same,remaining binding at 5 µM,MET(M1250T); 5 μM,100%
same,remaining binding at 10 µM,MET(M1250T); 10 μM,77%
same,remaining binding at 5 µM,[1]; 5 μM,89%
same,remaining binding at 10 µM,[1]; 10 μM,100%
same,remaining binding at 5 µM,[2]; 5 μM,60%
same,remaining binding at 10 µM,[2]; 10 μM,89%
same,cells in an apoptotic/necrotic state,H460,approximately 50%
same,remaining binding at 5 µM,RET(V804L); 5 μM,100%
same,remaining binding at 10 µM,RET(V804L); 10 μM,86%
same,remaining binding at 5 µM,MET(Y1235D); 5 μM,89%
same,remaining binding at 10 µM,MET(Y1235D); 10 μM,85%
same,remaining binding at 5 µM,HUNK; 5 μM,89%
same,remaining binding at 10 µM,HUNK; 10 μM,84%
same,remaining binding at 5 µM,AMPK-alpha2; 5 μM,81%
same,remaining binding at 10 µM,AMPK-alpha2; 10 μM,95%
same,remaining binding at 5 µM,MARK1; 5 μM,89%
same,remaining binding at 10 µM,MARK1; 10 μM,100%
same,remaining binding at 5 µM,AMPK-alpha1; 5 μM,100%
same,remaining binding at 10 µM,AMPK-alpha1; 10 μM,100%
same,remaining binding at 5 µM,PIK3CA(M1043I); 5 μM,100%
same,remaining binding at 10 µM,PIK3CA(M1043I); 10 μM,100%
same,"activities of caspases 8, 9 and 3/7","caspases 8, 9 and 3/7","activated caspases 8, 9 and 3/7 in a time-dependent manner"
same,remaining binding at 5 µM,"KIT(V559D,V654A); 5 μM",97%
same,remaining binding at 10 µM,"KIT(V559D,V654A); 10 μM",90%
same,P-gp ATPase activity,P-gp,did not induce P-gp ATPase activity
same,"toxicity to normal tissues (blood biochemical and hematological analyses, body weight, relative organ weights)",[3],did not exhibit evident toxicity to normal tissues
same,remaining binding at 5 µM,KIT(L576P); 5 μM,78%
same,remaining binding at 10 µM,KIT(L576P); 10 μM,100%
